Reference: US20090305276A1, “Method for Predicting Skin Sensitizing Activity of Compounds” (priority 2008, published 2009)
Like-named read-outs stand apart in the source and are kept apart here.

What was measured:
AKR = AKR (aldo-keto reductase) marker gene expression in cultured mammalian cells; type: cell-based; parameters: key: The ++ signs indicate positive response and the number represents the magnitude of response; The ++ signs indicate positive response and the number represents the magnitude of response; −−−: The dashed lines indicate no measurable response; −−−−: The dashed lines indicate no measurable response; −−−−−: The dashed lines indicate no measurable response; details: gene marker response, preliminary data
Source text: (§1) Specifically, chemicals would be placed in an appropriate vehicle such as DMSO and applied to appropriate mammalian cells, such as human keratinocytes (HaCat cells), 3D human skin cells, normal human epithelial cells (NHEK cells), MCF7 cells, H4IIE cells (ATCC Accession #CRL-1548), or combination cultures including keratinocyte and dendritic cells. Following exposure times of 6, 24, and 72 hr the expression levels of several genes that are associated with an increase risk for sensitization type reactions. The expression of key gene markers associated with sensitization that include but are not limited to quinone reductase, IL-8, CD-86, aldo-keto reductase, thioredoxin, and thioredoxin reductase is measured by RT-PCR.
(§2) In specific embodiments, the expression of gene markers is measured. Appropriate gene markers for the methods of the invention include but are not limited to quinone reductase, IL-8, CD-86, aldo-keto reductase, thioredoxin, and thioredoxin reductase. Expression levels may be measured by any appropriate method of measuring gene expression, including but not limited to polymerase chain reaction (PCR), reverse transcriptase PCR (RT-PCR), fluorescent in situ hybridization (FISH), branched DNA (bDNA) assay, differential display, RNA interference, reporter genes, microarrays, and proteomics. For instance, expression levels may be measured by RT-PCR in at least triplicates. The standard protocols for performing RT-PCR may be obtained from Invitrogen, (Carlsbad, Calif.). Standard methods and protocols for measuring gene expression are described in the literature and in treatises such as Sambrook et al., “Molecular Cloning: A Laboratory Manual” and Avison, Matthew, “Measuring Gene Expression,” Taylor and Francis (2006). These protocols are incorporated herein by reference in their entirety.
(§3) As shown in Table 2 (below), preliminary data were collected and used to build the algorithm for predicting the sensitization. NQO1 is quinone reductase; IL-8 is interleukin-8; and AKR is aldo-keto reductase.
(§4) The compounds listed in Table 2 are known skin sensitizers with different magnitudes of effect. In this example, three gene markers are measured to develop a relationship between the magnitude of response, the number of genes responding above about 15%, and the minimum exposure concentration where expression occurred. The ++ signs indicate positive response and the number represents the magnitude of response. The dashed lines indicate no measurable response.

NQO1 = NQO1 (quinone reductase) marker gene expression in cultured mammalian cells; type: cell-based; parameters: key: The ++ signs indicate positive response and the number represents the magnitude of response; The ++ signs indicate positive response and the number represents the magnitude of response; −−−: The dashed lines indicate no measurable response; −−−−: The dashed lines indicate no measurable response; −−−−−: The dashed lines indicate no measurable response; details: gene marker response, preliminary data
Source text: as §1, §2, §3, §4

IL-8 = IL-8 (interleukin-8) marker gene expression in cultured mammalian cells; type: cell-based; parameters: key: The ++ signs indicate positive response and the number represents the magnitude of response; The ++ signs indicate positive response and the number represents the magnitude of response; −−−: The dashed lines indicate no measurable response; −−−−: The dashed lines indicate no measurable response; −−−−−: The dashed lines indicate no measurable response; details: gene marker response, preliminary data
Source text: as §1, §2, §3, §4

skin = details: cited from earlier work
[1] = test system: local draining lymph nodes (lymphocyte proliferation); details: known LLNA data; estimated concentration required to produce a stimulation index of 3; cited from earlier work
[2] = known skin sensitizers with different magnitudes of effect

| Compound | AKR (AKR) | NQO1 (NQO1) | IL-8 (IL-8) | Sensitizer Class (skin; [2]) | LLNA E3C [1] | Sensitizer Class (skin; in vivo) |
| --- | --- | --- | --- | --- | --- | --- |
| O=C(C=Cc1ccccc1)OCc1ccccc1 [Benzyl Cinnamate] | ++ | ++ | −−− |  |  |  |
| O=C1OC(=O)c2ccccc21 [Phthalic Anhydride] | ++ | ++ | + | Strong | 10.8 |  |
| COc1cc(C=O)ccc1O [Vanillin] | −−−− | + | −−−− | Very Weak |  |  |
| CC=Cc1ccc(O)c(OC)c1 [Isoeugenol] | ++ | + | + | Moderate | 110 |  |
| O=C(O)c1ccccc1 [Benzoic Acid] | −−−−− | −−−− | −−−−− | Non- |  |  |
| O=C(Oc1ccccc1)c1ccccc1 [Phenyl Benzoate] | −−−− | + | + | Weak | 863 |  |
| CCCOC(=O)c1cc(O)c(O)c(O)c1 [Propyl Gallate] | ++ | ++ | ++ |  | 15.09 | Strong |
